In patent US20100063047A1 (KALYPSYS, INC., priority 2008, published 2010):
pEC50: −log10 of the molar value.

What follows are compounds tested against T1, human H1 (Homo sapiens, UniProt P35367) (assay: In vitro histamine H1 receptor cell-based aequorin bioluminescence antagonist assay). Settings: CHO-K1 cells expressing human H1 and aequorin; histamine at EC80; read-out: H1 Antagonist EC50.
T1 construct: host or cells: CHO-K1, also expressing mitochondrion-targeted aequorin
Method: In vitro Histamine Receptor Cell-Based Assays
The cell-based assays utilize an aequorin dependent bioluminescence signal. Doubly-transfected, stable CHO—K1 cell lines expressing human H1 or H4, mitochondrion-targeted aequorin, and (H4 only) human G protein Gα16 are obtained from Perkin-Elmer. Cells are maintained in F12 (Ham's) growth medium, containing 10% (vol./vol.) fetal bovine serum, penicillin (100 IU/mL), streptomycin (0.1 mg/mL), zeocin (0.25 mg/mL) and geneticin (0.40 mg/mL). Cell media components are from Invitrogen, Inc. One day prior to assay, the growth medium is replaced with the same, excluding zeocin and geneticin.
For assay preparation, growth medium is aspirated, and cells are rinsed with calcium-free, magnesium-free phosphate-buffered saline, followed by two to three minute incubation in Versene (Invitrogen, Inc.) at 37° C. Assay medium (DMEM:F12 [50:50], phenol-red free, containing 1 mg/mL protease-free bovine serum albumin) is added to collect the released cells, which are then centrifuged. The cell pellet is re-suspended in assay medium, centrifuged once more, and re-suspended in assay medium to a final density of 5×10^6 cells/mL. Coelenterazine-h dye (500 μM in ethanol) is added to a final concentration of 5 μM, and mixed immediately. The conical tube containing the cells is then wrapped with foil to protect the light-sensitive dye. The cells are incubated for four hours further at room temperature (approximately 21° C.) with end-over-end rotation to keep them in suspension.
Just before assay, the dye-loaded cells are diluted to 0.75×10^6 cells/mL (H1 receptor) or 1.5×10^6 cells/mL (H4 receptor) with additional assay medium. Cells are dispensed to 1536 well micro-titer plates at 3 μL/well. To assay receptor antagonism, 60 nl of 100× concentration test compounds in 100% dimethyl sulfoxide (DMSO) are dispensed to the wells, one compound per well, by passive pin transfer, and the plates are incubated for 15 minutes at room temperature. […] The pipette dispenses 3 μL/well of agonist (histamine, at twice the final concentration, where final concentration is a previously determined EC80) in assay medium, with concurrent bioluminescence detection. Agonist activity of test compounds is excluded by separate assays that measure response to test compounds immediately, without added histamine agonist.
CCD image capture on the Lumilux includes a 5 second baseline read prior to agonist addition, and generally a 40 second read per plate after agonist addition. A decrease in bioluminescence signal (measured either as area-under-the-curve, or maximum signal amplitude minus minimum signal amplitude) correlates with receptor antagonism in a dose dependent manner. The negative control is DMSO lacking any test compound. For antagonist assays, the positive controls are diphenhydramine (2-Diphenylmethoxy-N,N-dimethylethylamine, 10 μM final concentration, H1 receptor) or JNJ7777120 (1-[(5-Chloro-1H-indol-2-yl)carbonyl]-4-methyl-piperazine, 10 μM final concentration, H4 receptor). Efficacy is measured as a percentage of positive control activity.

T1 sequence (P35367 whole entry): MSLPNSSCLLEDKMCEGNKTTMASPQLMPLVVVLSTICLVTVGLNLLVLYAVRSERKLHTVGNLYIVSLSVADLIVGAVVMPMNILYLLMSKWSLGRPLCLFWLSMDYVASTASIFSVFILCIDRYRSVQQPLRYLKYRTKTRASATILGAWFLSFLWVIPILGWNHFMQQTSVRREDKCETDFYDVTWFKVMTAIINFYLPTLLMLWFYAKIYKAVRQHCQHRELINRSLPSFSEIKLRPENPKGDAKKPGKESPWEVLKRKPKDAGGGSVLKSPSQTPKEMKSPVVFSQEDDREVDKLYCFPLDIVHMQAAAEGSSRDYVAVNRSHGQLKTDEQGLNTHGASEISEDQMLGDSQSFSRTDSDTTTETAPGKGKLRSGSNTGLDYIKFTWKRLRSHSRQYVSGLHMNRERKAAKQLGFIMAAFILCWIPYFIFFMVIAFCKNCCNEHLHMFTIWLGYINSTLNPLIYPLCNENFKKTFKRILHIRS

SMILES	pEC50
Cc1csc2ncnc(N3CCC(NC(=O)OC(C)(C)C)C3)c12 (centres unmarked) [Example 251, tert-butyl N-(1-{5-methylthieno[2,3-d]pyrimidin-4-yl}pyrrolidin-3-yl)carbamate]	< 5.00
Cc1csc2ncnc(CCCc3ccc(Cl)cc3)c12 [Example 23, 4-(3-(4-chlorophenyl)propyl)-5-methylthieno[2,3-d]pyrimidine]	< 5.00
Cc1csc2ncnc(NCC(C)c3ccccc3)c12 (centres unmarked) [Example 116, 5-methyl-N-(2-phenylpropyl)thieno[2,3-d]pyrimidin-4-amine]	< 5.00
Cc1csc2ncnc(C(=O)CCc3ccc(Cl)cc3)c12 [Example 25, 3-(4-chlorophenyl)-1-(5-methylthieno[2,3-d]pyrimidin-4-yl)propan-1-one]	< 5.00
Cc1csc2ncnc(N3CCCCC3CO)c12 (centres unmarked) [Example 206, (1-{5-methylthieno[2,3-d]pyrimidin-4-yl}piperidin-2-yl)methanol]	< 5.00
Cc1csc2ncnc(NCCc3c[nH]c4ccccc34)c12 [Example 155, N-[2-(1H-indol-3-yl)ethyl]-5-methylthieno[2,3-d]pyrimidin-4-amine]	< 5.00
Cc1csc2ncnc(NCCCN3CCOCC3)c12 [Example 136, 5-methyl-N-[3-(morpholin-4-yl)propyl]thieno[2,3-d]pyrimidin-4-amine]	< 5.00
COc1cc(CNc2ncnc3scc(C)c23)cc(OC)c1 [Example 159, N-[(3,5-dimethoxyphenyl)methyl]-5-methylthieno[2,3-d]pyrimidin-4-amine]	< 5.00
CCC1CCC(Nc2ncnc3scc(C)c23)CC1 (centres unmarked) [Example 22, (4-Ethylcyclohexyl)(5-methylthiopheno[3,2-e]pyrimidin-4-yl)amine]	< 5.00
COC[C@@H]1CCCN1c1ncnc2scc(C)c12 [Example 205, (2S)-2-(methoxymethyl)-1-{5-methylthieno[2,3-d]pyrimidin-4-yl}pyrrolidine]	< 5.00
Cc1csc2ncnc(N3CCC(N(C)C(=O)OC(C)(C)C)C3)c12 (centres unmarked) [Example 270, tert-butyl N-methyl-N-(1-{5-methylthieno[2,3-d]pyrimidin-4-yl}pyrrolidin-3-yl)carbamate]	< 5.00
Cc1sc2ncnc(N3CCC(C(=O)OCc4ccc(C#N)cc4)CC3)c2c1C [Example 306, 4-cyanobenzyl 1-(5,6-dimethylthieno[2,3-d]pyrimidin-4-yl)piperidine-4-carboxylate]	< 5.00
COc1ccc(CCNc2nc(C)nc3sc(C)c(C)c23)cc1OC [Example 296, N-(3,4-dimethoxyphenethyl)-2,5,6-trimethylthieno[2,3-d]pyrimidin-4-amine]	< 5.00
COCC(C)Nc1ncnc2scc(C)c12 (centres unmarked) [Example 71, N-(1-methoxypropan-2-yl)-5-methylthieno[2,3-d]pyrimidin-4-amine]	< 5.00
Cc1csc2ncnc(N3CCN(c4ccc([N+](=O)[O-])cc4)CC3)c12 [Example 273, 1-{5-methylthieno[2,3-d]pyrimidin-4-yl}-4-(4-nitrophenyl)piperazine]	< 5.00
Cc1csc2ncnc(NC3CCCCCC3)c12 [Example 90, N-cycloheptyl-5-methylthieno[2,3-d]pyrimidin-4-amine]	< 5.00
Cc1csc2ncnc(N3CCN(C)CC3)c12 [Example 192, 1-methyl-4-{5-methylthieno[2,3-d]pyrimidin-4-yl}piperazine]	< 5.00
Cc1csc2ncnc(NCCc3ccc(Cl)cc3)c12 [Example 46, N-[2-(4-chlorophenyl)ethyl]-5-methylthieno[2,3-d]pyrimidin-4-amine]	< 5.00
Cc1csc2ncnc(NCc3cc(F)cc(F)c3)c12 [Example 135, N-[(3,5-difluorophenyl)methyl]-5-methylthieno[2,3-d]pyrimidin-4-amine]	< 5.00
Cc1csc2ncnc(NC3CCCCC3C)c12 (centres unmarked) [Example 91, 5-methyl-N-(2-methylcyclohexyl)thieno[2,3-d]pyrimidin-4-amine]	< 5.00
